According to PubChem BioAssay (NCI):
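These data come from cells grown in 96-well plates and exposed to compound for 48 hours at five concentrations. GI50 = concentration required for 50% inhibition of growth. Definition used: TGI = concentration required for complete inhibition of growth.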

Tests used:
Experiment in all cases: NCI anticancer screen, dose series, 48 h
MOLT-4 leukemia = system: MOLT-4 leukemia
CCRF-CEM leukemia = system: CCRF-CEM leukemia
SR leukemia = system: SR leukemia
SW-620 colon = system: SW-620 colon
SN12C renal = system: SN12C renal
M14 melanoma = system: M14 melanoma
DU-145 prostate = system: DU-145 prostate
SF-539 CNS = system: SF-539 CNS
NCI-H23 lung = system: NCI-H23 lung
IGROV1 ovarian = system: IGROV1 ovarian
MDA-MB-231 breast = system: MDA-MB-231 breast
BT-549 breast = system: BT-549 breast
HS 578T breast = system: HS 578T breast
NCI/ADR-RES ovarian = system: NCI/ADR-RES ovarian
HOP-92 NSCLC = system: HOP-92 NSCLC
SF-295 CNS = system: SF-295 CNS
SK-MEL-2 melanoma = system: SK-MEL-2 melanoma
U251 CNS = system: U251 CNS
HOP-62 NSCLC = system: HOP-62 NSCLC
PC-3 prostate = system: PC-3 prostate
OVCAR-4 ovarian = system: OVCAR-4 ovarian
MDA-MB-435 = system: MDA-MB-435
A498 renal = system: A498 renal
786-0 renal = system: 786-0 renal
UO-31 renal = system: UO-31 renal
A549 NSCLC = system: A549 NSCLC
HCC-2998 colon = system: HCC-2998 colon
HL-60(TB) leukemia = system: HL-60(TB) leukemia
COLO 205 colon = system: COLO 205 colon
MALME-3M melanoma = system: MALME-3M melanoma
CAKI-1 renal = system: CAKI-1 renal
UACC-62 melanoma = system: UACC-62 melanoma
RPMI-8226 leukemia = system: RPMI-8226 leukemia
SK-OV-3 ovarian = system: SK-OV-3 ovarian
SNB-75 CNS = system: SNB-75 CNS
HCT-116 colon = system: HCT-116 colon
LOX IMVI melanoma = system: LOX IMVI melanoma
NCI-H522 lung = system: NCI-H522 lung
SNB-19 CNS = system: SNB-19 CNS
SK-MEL-28 melanoma = system: SK-MEL-28 melanoma
OVCAR-5 ovarian = system: OVCAR-5 ovarian
SF-268 CNS = system: SF-268 CNS
OVCAR-8 ovarian = system: OVCAR-8 ovarian
MCF7 breast = system: MCF7 breast
UACC-257 melanoma = system: UACC-257 melanoma
NCI-H226 lung = system: NCI-H226 lung
EKVX NSCLC = system: EKVX NSCLC
T-47D breast = system: T-47D breast
ACHN renal = system: ACHN renal
K-562 leukemia = system: K-562 leukemia
HT29 colon = system: HT29 colon
KM12 colon = system: KM12 colon
HCT-15 colon = system: HCT-15 colon
SK-MEL-5 melanoma = system: SK-MEL-5 melanoma
RXF 393 renal = system: RXF 393 renal
OVCAR-3 ovarian = system: OVCAR-3 ovarian
TK-10 renal = system: TK-10 renal
NCI-H460 lung = system: NCI-H460 lung

## COc1cc(/C=N/NC(=O)c2cnn3c2NC(c2ccccc2)C3)ccc1OCc1ccccc1 (configuration not stated)
MOLT-4 leukemia
  GI50: 1.14 µM
  TGI: 12.2 µM
CCRF-CEM leukemia
  GI50: 0.712 µM
  TGI: > 100 µM
SR leukemia
  GI50: 0.214 µM
  TGI: 5.05 µM
SW-620 colon
  GI50: 0.569 µM
  TGI: 2.76 µM
SN12C renal
  GI50: 2.26 µM
  TGI: 11 µM
M14 melanoma
  GI50: 0.695 µM
  TGI: 4.45 µM
DU-145 prostate
  GI50: 1.47 µM
  TGI: 6.4 µM
SF-539 CNS
  GI50: 0.524 µM
  TGI: 2.29 µM
NCI-H23 lung
  GI50: 1.2 µM
  TGI: 6.12 µM
IGROV1 ovarian
  GI50: 0.992 µM
  TGI: 7.26 µM
MDA-MB-231 breast
  GI50: 2.17 µM
  TGI: 9.39 µM
BT-549 breast
  GI50: 0.571 µM
  TGI: 4.85 µM
HS 578T breast
  GI50: 0.908 µM
  TGI: 3.3 µM
NCI/ADR-RES ovarian
  GI50: 1.51 µM
  TGI: 10.9 µM
HOP-92 NSCLC
  GI50: 1.48 µM
  TGI: 5.77 µM
SF-295 CNS
  GI50: 0.453 µM
  TGI: 2.11 µM
SK-MEL-2 melanoma
  GI50: 1.32 µM
  TGI: 7.09 µM
U251 CNS
  GI50: 1.14 µM
  TGI: 3.07 µM
HOP-62 NSCLC
  GI50: 1.2 µM
  TGI: 4.27 µM
PC-3 prostate
  GI50: 0.967 µM
  TGI: 3.23 µM
OVCAR-4 ovarian
  GI50: 1.2 µM
  TGI: 3.08 µM
MDA-MB-435
  GI50: 0.158 µM
  TGI: 0.95 µM
A498 renal
  GI50: 0.226 µM
  TGI: 2.5 µM
786-0 renal
  GI50: 1.16 µM
  TGI: 4.03 µM
UO-31 renal
  GI50: 1.28 µM
  TGI: 8.87 µM
A549 NSCLC
  GI50: 1.17 µM
  TGI: 3.75 µM
HCC-2998 colon
  GI50: 2.35 µM
  TGI: 24.5 µM
HL-60(TB) leukemia
  GI50: 0.328 µM
  TGI: 7.54 µM
COLO 205 colon
  GI50: 0.953 µM
  TGI: 4.22 µM
MALME-3M melanoma
  GI50: 0.616 µM
  TGI: 3.7 µM
CAKI-1 renal
  GI50: 0.597 µM
  TGI: 3.99 µM
UACC-62 melanoma
  GI50: 0.679 µM
  TGI: 7.14 µM
RPMI-8226 leukemia
  GI50: 0.955 µM
  TGI: 23.6 µM
SK-OV-3 ovarian
  GI50: 1.71 µM
  TGI: 11.1 µM
SNB-75 CNS
  GI50: 0.595 µM
  TGI: 2.24 µM
HCT-116 colon
  GI50: 1.18 µM
  TGI: 11.7 µM
LOX IMVI melanoma
  GI50: 0.573 µM
  TGI: 2.79 µM
NCI-H522 lung
  GI50: 0.391 µM
  TGI: 3.9 µM
SNB-19 CNS
  GI50: 1.25 µM
  TGI: 13.7 µM
SK-MEL-28 melanoma
  GI50: 1.36 µM
  TGI: 5.11 µM
OVCAR-5 ovarian
  GI50: 2.11 µM
  TGI: 10.6 µM
SF-268 CNS
  GI50: 2.42 µM
  TGI: 16.7 µM
OVCAR-8 ovarian
  GI50: 2.15 µM
  TGI: 9.54 µM
MCF7 breast
  GI50: 0.365 µM
  TGI: 14.6 µM
UACC-257 melanoma
  GI50: 1.46 µM
  TGI: 11 µM
NCI-H226 lung
  GI50: 2.17 µM
  TGI: 21.8 µM
EKVX NSCLC
  GI50: 1.48 µM
  TGI: 12.4 µM
T-47D breast
  GI50: 1.22 µM
  TGI: > 37.5 µM
ACHN renal
  GI50: 0.903 µM
  TGI: 6.99 µM
K-562 leukemia
  GI50: 0.293 µM
  TGI: 15.3 µM
HT29 colon
  GI50: 0.43 µM
  TGI: 4.33 µM
KM12 colon
  GI50: 0.412 µM
  TGI: 2.35 µM
HCT-15 colon
  GI50: 0.461 µM
  TGI: 6.68 µM
SK-MEL-5 melanoma
  GI50: 0.663 µM
  TGI: 2.8 µM
RXF 393 renal
  GI50: 1.29 µM
  TGI: 3.96 µM
OVCAR-3 ovarian
  GI50: 0.331 µM
  TGI: 1.34 µM
TK-10 renal
  GI50: 1.76 µM
  TGI: 5.94 µM
NCI-H460 lung
  GI50: 0.437 µM
  TGI: 1.66 µM

## COC(=O)c1sc(-n2cnc3cc(OC)c(OC)cc32)cc1OCc1ccccc1C(F)(F)F
MOLT-4 leukemia
  GI50: > 25 µM
  TGI: > 25 µM
CCRF-CEM leukemia
  GI50: > 25 µM
  TGI: > 25 µM
SR leukemia
  GI50: > 25 µM
  TGI: > 25 µM
SW-620 colon
  GI50: > 25 µM
  TGI: > 25 µM
SN12C renal
  GI50: > 25 µM
  TGI: > 25 µM
M14 melanoma
  GI50: > 25 µM
  TGI: > 25 µM
DU-145 prostate
  GI50: > 25 µM
  TGI: > 25 µM
SF-539 CNS
  GI50: > 25 µM
  TGI: > 25 µM
NCI-H23 lung
  GI50: > 25 µM
  TGI: > 25 µM
IGROV1 ovarian
  GI50: > 25 µM
  TGI: > 25 µM
MDA-MB-231 breast
  GI50: 5.79 µM
  TGI: > 25 µM
BT-549 breast
  GI50: > 25 µM
  TGI: > 25 µM
HS 578T breast
  GI50: 6.2 µM
  TGI: > 25 µM
NCI/ADR-RES ovarian
  GI50: > 25 µM
  TGI: > 25 µM
HOP-92 NSCLC
  GI50: 4.31 µM
  TGI: 18.1 µM
SF-295 CNS
  GI50: > 23.6 µM
  TGI: > 25 µM
SK-MEL-2 melanoma
  GI50: > 19 µM
  TGI: > 25 µM
U251 CNS
  GI50: 10.8 µM
  TGI: > 25 µM
HOP-62 NSCLC
  GI50: 9.22 µM
  TGI: > 25 µM
PC-3 prostate
  GI50: > 25 µM
  TGI: > 25 µM
OVCAR-4 ovarian
  GI50: > 25 µM
  TGI: > 25 µM
MDA-MB-435
  GI50: > 25 µM
  TGI: > 25 µM
A498 renal
  GI50: 0.513 µM
  TGI: > 25 µM
786-0 renal
  GI50: 10.8 µM
  TGI: > 25 µM
UO-31 renal
  GI50: > 25 µM
  TGI: > 25 µM
A549 NSCLC
  GI50: > 25 µM
  TGI: > 25 µM
HCC-2998 colon
  GI50: > 25 µM
  TGI: > 25 µM
HL-60(TB) leukemia
  GI50: > 25 µM
  TGI: > 25 µM
COLO 205 colon
  GI50: > 25 µM
  TGI: > 25 µM
MALME-3M melanoma
  GI50: > 25 µM
  TGI: > 25 µM
CAKI-1 renal
  GI50: > 25 µM
  TGI: > 25 µM
UACC-62 melanoma
  GI50: > 25 µM
  TGI: > 25 µM
RPMI-8226 leukemia
  GI50: > 25 µM
  TGI: > 25 µM
SK-OV-3 ovarian
  GI50: > 21.5 µM
  TGI: > 25 µM
SNB-75 CNS
  GI50: 9.07 µM
  TGI: > 19.6 µM
HCT-116 colon
  GI50: > 21.8 µM
  TGI: > 25 µM
LOX IMVI melanoma
  GI50: > 25 µM
  TGI: > 25 µM
NCI-H522 lung
  GI50: 17.7 µM
  TGI: > 25 µM
SNB-19 CNS
  GI50: 24.9 µM
  TGI: > 25 µM
SK-MEL-28 melanoma
  GI50: > 25 µM
  TGI: > 25 µM
OVCAR-5 ovarian
  GI50: > 25 µM
  TGI: > 25 µM
SF-268 CNS
  GI50: 17.1 µM
  TGI: > 25 µM
OVCAR-8 ovarian
  GI50: 15.3 µM
  TGI: > 25 µM
MCF7 breast
  GI50: > 25 µM
  TGI: > 25 µM
UACC-257 melanoma
  GI50: > 25 µM
  TGI: > 25 µM
NCI-H226 lung
  GI50: > 25 µM
  TGI: > 25 µM
EKVX NSCLC
  GI50: > 25 µM
  TGI: > 25 µM
T-47D breast
  GI50: > 25 µM
  TGI: > 25 µM
ACHN renal
  GI50: > 25 µM
  TGI: > 25 µM
K-562 leukemia
  GI50: > 25 µM
  TGI: > 25 µM
HT29 colon
  GI50: > 25 µM
  TGI: > 25 µM
KM12 colon
  GI50: > 25 µM
  TGI: > 25 µM
HCT-15 colon
  GI50: > 25 µM
  TGI: > 25 µM
SK-MEL-5 melanoma
  GI50: > 25 µM
  TGI: > 25 µM
RXF 393 renal
  GI50: 7.45 µM
  TGI: > 25 µM
OVCAR-3 ovarian
  GI50: > 25 µM
  TGI: > 25 µM
TK-10 renal
  GI50: 11 µM
  TGI: > 25 µM
NCI-H460 lung
  GI50: 18.7 µM
  TGI: > 25 µM
